Measured values from PubChem BioAssay (NCI).
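GI50 = concentration required for 50% inhibition of growth. Definition used: TGI = concentration required for complete inhibition of growth.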

How the values were obtained:
Assay in all cases: NCI-60 cell line screen, 384-well format
SN12C renal = system: SN12C renal
OVCAR-3 ovarian = system: OVCAR-3 ovarian
SF-539 CNS = system: SF-539 CNS
MALME-3M melanoma = system: MALME-3M melanoma
EKVX NSCLC = system: EKVX NSCLC
HCT-15 colon = system: HCT-15 colon
NCI-H460 NSCLC = system: NCI-H460 NSCLC
SK-MEL-28 melanoma = system: SK-MEL-28 melanoma
OVCAR-5 ovarian = system: OVCAR-5 ovarian
U251 glioblastoma = system: U251 glioblastoma
CAKI-1 renal = system: CAKI-1 renal
UACC-62 melanoma = system: UACC-62 melanoma
SF-295 CNS = system: SF-295 CNS
MDA-MB-468 breast = system: MDA-MB-468 breast
SW-620 colon = system: SW-620 colon
OVCAR-8 ovarian = system: OVCAR-8 ovarian
DU-145 prostate = system: DU-145 prostate
HL-60(TB) leukemia = system: HL-60(TB) leukemia
NCI-H322M lung = system: NCI-H322M lung
UACC-257 melanoma = system: UACC-257 melanoma
NCI-H23 lung = system: NCI-H23 lung
A498 renal = system: A498 renal
UO-31 renal = system: UO-31 renal
NCI-H226 lung = system: NCI-H226 lung
HS 578T breast = system: HS 578T breast
KM12 colon = system: KM12 colon
T-47D breast = system: T-47D breast
RXF 393 renal = system: RXF 393 renal
TK-10 renal = system: TK-10 renal
MDA-MB-435 melanoma = system: MDA-MB-435 melanoma
786-0 renal = system: 786-0 renal
NCI-H522 lung = system: NCI-H522 lung
ACHN renal = system: ACHN renal
SF-268 CNS = system: SF-268 CNS
COLO 205 colon = system: COLO 205 colon
M14 melanoma = system: M14 melanoma
MCF7 breast = system: MCF7 breast
K-562 leukemia = system: K-562 leukemia
A549 NSCLC = system: A549 NSCLC
IGROV1 ovarian = system: IGROV1 ovarian
PC-3 prostate = system: PC-3 prostate
SK-MEL-2 melanoma = system: SK-MEL-2 melanoma
HOP-92 NSCLC = system: HOP-92 NSCLC
MDA-MB-231 breast = system: MDA-MB-231 breast
SK-MEL-5 melanoma = system: SK-MEL-5 melanoma
SNB-75 CNS = system: SNB-75 CNS
HT29 colon = system: HT29 colon
SNB-19 CNS = system: SNB-19 CNS
HCT-116 colon = system: HCT-116 colon
HOP-62 NSCLC = system: HOP-62 NSCLC
OVCAR-4 ovarian = system: OVCAR-4 ovarian
BT-549 breast = system: BT-549 breast
SR leukemia = system: SR leukemia
SK-OV-3 ovarian = system: SK-OV-3 ovarian
MOLT-4 leukemia = system: MOLT-4 leukemia

C#CC[C@H](c1nc2cc(Cl)ccc2c(=O)n1Nc1ccccc1)N(CCCN)C(=O)c1cccc(Cl)c1F
GI50 (SN12C renal): 109 nM | TGI (SN12C renal): 1860 nM | GI50 (OVCAR-3 ovarian): 30.2 nM | TGI (OVCAR-3 ovarian): 277 nM | GI50 (SF-539 CNS): 27.3 nM | TGI (SF-539 CNS): 75.1 nM | GI50 (MALME-3M melanoma): 189 nM | TGI (MALME-3M melanoma): 1760 nM | GI50 (EKVX NSCLC): 89.6 nM | TGI (EKVX NSCLC): 1460 nM | GI50 (HCT-15 colon): 1500 nM | TGI (HCT-15 colon): 2850 nM | GI50 (NCI-H460 NSCLC): 48 nM | TGI (NCI-H460 NSCLC): 1120 nM | GI50 (SK-MEL-28 melanoma): 1290 nM | TGI (SK-MEL-28 melanoma): 2560 nM | GI50 (OVCAR-5 ovarian): 468 nM | TGI (OVCAR-5 ovarian): 1860 nM | GI50 (U251 glioblastoma): 45 nM | TGI (U251 glioblastoma): 1330 nM | GI50 (CAKI-1 renal): 795 nM | TGI (CAKI-1 renal): 2030 nM | GI50 (UACC-62 melanoma): 51.7 nM | TGI (UACC-62 melanoma): 1440 nM | GI50 (SF-295 CNS): 227 nM | TGI (SF-295 CNS): 650 nM | GI50 (MDA-MB-468 breast): 18.3 nM | TGI (MDA-MB-468 breast): 39.6 nM | GI50 (SW-620 colon): 65.2 nM | TGI (SW-620 colon): 1250 nM | GI50 (OVCAR-8 ovarian): 189 nM | TGI (OVCAR-8 ovarian): 1220 nM | GI50 (DU-145 prostate): 58.9 nM | TGI (DU-145 prostate): 1060 nM | GI50 (HL-60(TB) leukemia): 19.9 nM | TGI (HL-60(TB) leukemia): 34.6 nM | GI50 (NCI-H322M lung): 52.8 nM | TGI (NCI-H322M lung): 1520 nM | GI50 (UACC-257 melanoma): 60.4 nM | TGI (UACC-257 melanoma): 1900 nM | GI50 (NCI-H23 lung): 73.7 nM | TGI (NCI-H23 lung): 799 nM | GI50 (A498 renal): 553 nM | TGI (A498 renal): 1820 nM | GI50 (UO-31 renal): 1790 nM | TGI (UO-31 renal): 3180 nM | GI50 (NCI-H226 lung): 1110 nM | TGI (NCI-H226 lung): 2310 nM | GI50 (HS 578T breast): 17.8 nM | TGI (HS 578T breast): 44.8 nM | GI50 (KM12 colon): 56.8 nM | TGI (KM12 colon): 670 nM | GI50 (T-47D breast): 57.7 nM | TGI (T-47D breast): 1600 nM | GI50 (RXF 393 renal): 41 nM | TGI (RXF 393 renal): 288 nM | GI50 (TK-10 renal): 1070 nM | TGI (TK-10 renal): 2270 nM | GI50 (MDA-MB-435 melanoma): 17.8 nM | TGI (MDA-MB-435 melanoma): 35.9 nM | GI50 ([…]-0 renal): 678 nM | TGI (786-0 renal): 1960 nM | GI50 (NCI-H522 lung): 20 nM | TGI (NCI-H522 lung): 40.2 nM | GI50 (ACHN renal): 1110 nM | TGI (ACHN renal): 2320 nM | GI50 (SF-268 CNS): 48.6 nM | TGI (SF-268 CNS): 1450 nM | GI50 (COLO 205 colon): 30.3 nM | TGI (COLO 205 colon): 82.9 nM | GI50 (M14 melanoma): 363 nM | TGI (M14 melanoma): 1440 nM | GI50 (MCF7 breast): 23.1 nM | TGI (MCF7 breast): 1110 nM | GI50 (K-562 leukemia): 44.9 nM | TGI (K-562 leukemia): 219 nM | GI50 (A549 NSCLC): 62.5 nM | TGI (A549 NSCLC): 1880 nM | GI50 (IGROV1 ovarian): 1030 nM | TGI (IGROV1 ovarian): 2220 nM | GI50 (PC-3 prostate): 57 nM | TGI (PC-3 prostate): 1590 nM | GI50 (SK-MEL-2 melanoma): 21.6 nM | TGI (SK-MEL-2 melanoma): 43.5 nM | GI50 (HOP-92 NSCLC): 674 nM | TGI (HOP-92 NSCLC): 2140 nM | GI50 (MDA-MB-231 breast): 63 nM | TGI (MDA-MB-231 breast): 1700 nM | GI50 (SK-MEL-5 melanoma): 77.4 nM | TGI (SK-MEL-5 melanoma): 737 nM | GI50 (SNB-75 CNS): 58.9 nM | TGI (SNB-75 CNS): 1530 nM | GI50 (HT29 colon): 36.1 nM | TGI (HT29 colon): 173 nM | GI50 (SNB-19 CNS): 863 nM | TGI (SNB-19 CNS): 2160 nM | GI50 (HCT-116 colon): 36.5 nM | TGI (HCT-116 colon): 1170 nM | GI50 (HOP-62 NSCLC): 354 nM | TGI (HOP-62 NSCLC): 1540 nM | GI50 (OVCAR-4 ovarian): 521 nM | TGI (OVCAR-4 ovarian): 2090 nM | GI50 (BT-549 breast): 166 nM | TGI (BT-549 breast): 1080 nM | GI50 (SR leukemia): 18.9 nM | TGI (SR leukemia): 34.3 nM | GI50 (SK-OV-3 ovarian): 29.9 nM | TGI (SK-OV-3 ovarian): 648 nM | GI50 (MOLT-4 leukemia): 19.4 nM | TGI (MOLT-4 leukemia): 34.4 nM
